{"source": "paper PMC5108082", "about": "“Pharmacokinetics, toxicity, and cytochrome P450 modulatory activity of plumbagin” (BMC Pharmacology & Toxicology, 2016)", "key": {"[1]": {"system": "K1 chloroquine-resistant P. falciparum", "details": "K1 clone; read-out: median IC50; cited from earlier work"}, "[2]": {"assay": "subacute toxicity test, daily oral dose for 28 days", "assay_type": "in vivo, rat", "details": "both sexes, Wistar, rat, in vivo, rats, daily oral doses for 28 days", "method": "(§1) Plumbagin was dissolved with 20 % Tween-80 to obtain the desired concentrations. Wistar rats were fasting 2 h before administration of a single oral dose of the plumbagin. Animals were divided into eight groups of six (3 males and 3 females for each group). For the acute toxicity test, rats in each group were fed with plumbagin at a single oral dose of 500, 250, or 150 mg/kg body weight (1 mL); control group received a single oral dose of 20 % Tween-80 (1 mL). For the subacute toxicity test, rats in each group were fed with plumbagin at a daily dose of 100, 50, or 25 mg/kg body weight (1 mL) for 28 days; control group received a daily oral dose of 20 % Tween-80 for 28 days (1 mL).\n(§2) General behavioral changes of each rat was observed continuously for 1 h after each dose, intermittently every 4 h, and thereafter over a period of 24 h. […] At the end of the observation period, all animals were sacrificed under ether anesthesia (isoflurane) and vital organs (liver, lung, kidney, heart, and spleen) were removed from all animals for gross and histopathological examination. Blood sample was collected from each rat through cardiac puncture for analysis of plasma chemistry (heparin as an anticoagulant) and blood hematology (EDTA as an anticoagulant)."}, "Wistar rats": {"system": "Wistar rats", "assay": "subacute toxicity test, daily oral dose for 28 days", "assay_type": "in vivo, rat", "method": "as §1, §2"}, "CYP3A11": {"system": "CYP3A11", "details": "mouse, in vivo, po", "method": "Mice were divided into four groups (3 male mice each). Mice in the treated groups were fed with plumbagin at a daily oral dose of 25, 12.5, or 6.25 mg/kg body weight (1 mL) for 28 days. The control group received a daily oral dose (1 mL) of 20 % Tween-80 for 28 days. At the end of the experiment period, all animals were sacrificed under ether anesthesia and livers were removed for investigation of the modulatory effect of plumbagin on hepatic CYP1A2 and CYP3A11.\nThe liver samples were rinsed with ice-cold, 0.9 %NaCl, homogenized in 50 mM sodium phosphate buffer (pH 7.4) containing 0.1 mM EDTA, and centrifuged at 9000 × g for 20 min. […] Protein concentrations were determined by Bradford protein assay and the suspended microsomes were aliquoted and stored at −80 °C until use. […]\nThe incubation mixture of 500 μL containing the selective substrate (20 μM phenacetin and 40 μm nifedipine for CYP1A2 and CYP3A11, respectively), mice liver microsomes (in 100 mM phosphate buffer pH 7.4) was pre-incubated at 37 °C for 5 min in a shaking water bath. […] Concentrations of paracetamol (metabolite of CYP1A2) and oxidized nifedipine (metabolite of CYP3A11) in the incubation mixtures were determined using HPLC with UV detection. […]"}, "[3]": {"details": "25 mg/kg body weight daily for 28 days"}, "[4]": {"details": "25 mg/kg daily oral for 28 days, median (interquartile range)"}}, "note": "“Also recorded” adds a separate entry of the source."}
{"smiles": "CC1=CC(=O)c2c(O)cccc2C1=O", "note": "[plumbagin, 5-hydroxy-2-methyl-1,4-naphthoquinone]", "values": [{"measurement": "IC50", "setting": "[1]", "value": 370, "unit": "nM"}, {"measurement": "LD50 at 28 days", "setting": "[2]; read-out: 50 % lethal dose (LD50), subacute toxicity", "value": "50 to 100", "unit": "mg/kg"}, {"measurement": "MTD at 28 days", "setting": "[2]; read-out: maximum tolerated dose, subacute toxicity", "value": 25, "unit": "mg/kg"}, {"measurement": "behavior, signs of toxicity, water and food consumption, body weight", "setting": "Wistar rats; [3]", "value": "no abnormality in behavior, sign of toxicity, nor changes in water and food consumption, as well as body weights"}, {"measurement": "histopathological examination (liver, kidney, heart, spleen, lung)", "setting": "Wistar rats; [3]", "value": "no significant change in size and morphology"}, {"measurement": "survival", "setting": "Wistar rats; [3]", "value": "all rats survived"}, {"measurement": "changes in blood chemistry and hematology", "setting": "Wistar rats; 25 mg/kg body weight daily for 28 days vs control", "value": "no significant changes in blood chemistry and hematology; also recorded: no significant change in hematological and blood biochemistry profiles"}, {"measurement": "Blood morphology", "setting": "Wistar rats; 25 mg/kg daily oral for 28 days", "value": "Normal"}, {"measurement": "ALT", "setting": "Wistar rats; [4]", "value": "30 (11) U/L"}, {"measurement": "AST", "setting": "Wistar rats; [4]", "value": "101 (15) U/L"}, {"measurement": "BUN", "setting": "Wistar rats; [4]", "value": "22.0 (7.5) mg/dL"}, {"measurement": "Cholesterol", "setting": "Wistar rats; [4]", "value": "73 (6) mg/dL"}, {"measurement": "Creatinine", "setting": "Wistar rats; [4]", "value": "0.50 (0.00) mg/dL"}, {"measurement": "Eosinophils", "setting": "Wistar rats; [4]", "value": "0.00 (1.00) ×10^3/μL"}, {"measurement": "Glucose", "setting": "Wistar rats; [4]", "value": 230, "unit": "mg/dL"}, {"measurement": "Hematocrit", "setting": "Wistar rats; [4]", "value": "47.8 (2.6) %"}, {"measurement": "Hemoglobin", "setting": "Wistar rats; [4]", "value": "14.4 (1.2) g/dL"}, {"measurement": "Lymphocytes", "setting": "Wistar rats; [4]", "value": "7.59 (0.31) ×10^3/μL"}, {"measurement": "Monocytes", "setting": "Wistar rats; [4]", "value": "0.00 (1.00) ×10^3/μL"}, {"measurement": "Neutrophils", "setting": "Wistar rats; [4]", "value": "2.20 (0.63) ×10^3/μL"}, {"measurement": "Platelets count", "setting": "Wistar rats; [4]", "value": "885.50 (73.75) ×10^3/μL"}, {"measurement": "RBC", "setting": "Wistar rats; [4]", "value": "8.16 (0.72) ×10^6/μL"}, {"measurement": "Triglyceride", "setting": "Wistar rats; [4]", "value": "110 (9) mg/dL"}, {"measurement": "WBC", "setting": "Wistar rats; [4]", "value": "9.40 (0.65) ×10^3/μL"}, {"measurement": "Glucose", "setting": "Wistar rats; 25 mg/kg daily oral for 28 days, median (interquartile range), listed as Plumbagin", "value": "230 (59) mg/dL"}, {"measurement": "rats died", "setting": "Wistar rats; 50 mg/kg body weight daily", "value": "two rats"}, {"measurement": "rats with toxic signs and symptoms", "setting": "Wistar rats; 50 mg/kg body weight daily", "value": "2/6"}, {"measurement": "time to death", "setting": "Wistar rats; 50 mg/kg body weight daily", "value": "12 to 16", "unit": "days"}, {"measurement": "rats died", "setting": "Wistar rats; 100 mg/kg body weight daily", "value": "All rats"}, {"measurement": "rats with toxic signs and symptoms", "setting": "Wistar rats; 100 mg/kg body weight daily", "value": "6/6"}, {"measurement": "time to death", "setting": "Wistar rats; 100 mg/kg body weight daily", "value": "6 to 10", "unit": "days"}, {"measurement": "gender-specific toxicity", "setting": "Wistar rats; all dose levels", "value": "No gender-specific toxicity was observed"}, {"measurement": "trend of CYP3A11 mRNA expression and enzyme activity", "setting": "CYP3A11", "value": "a trend of reduction"}]}
